Measurements: PubChem BioAssay AID1312 (NMMLSC, 2008)
Active and inactive are the calls of the source.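 The calls were made as follows: active = area under the green fluorescent protein level over time curve over 15% above untreated cells; inactive = the rest.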 Peptide text beside a SMILES is read from it. * marks the point of attachment. Cbz = O=C(OCc1ccccc1)*

Test system: S. cerevisiae Sic1-GFP degradation, flow cytometry time course
Assay: yeast Sic1MUS-GFP fusion turnover – flow cytometry, Sic1MUS mutant, S. cerevisiae, mechanism study for 26S proteasome disassembly project, confirmation (AID 1312)

SMILES	outcome
CC(=O)N1C(=O)C(=C2C=C(C)OC(C)=C2)c2ccccc21	active; degradation inhibitor
CC(C)C[C@@H](C=O)NC(=O)[C@H](CC(C)C)NC(=O)[C@H](CC(C)C)NC(=O)OCc1ccccc1 (Cbz-Leu-Leu-Leu-aldehyde)	inactive
